# Positions count from the first letter of the chain named.
# What was measured:
# [1] = target: T1, zfP2X4 (ΔP2X4-C) T189S mutant (Danio rerio, UniProt F8W463, N187R/N78K/T189S); test: ATR-FTIR difference spectroscopy, residual nucleotide after washing, zfP2X4 T189S; type: binding, zebrafish; details: 10 μM nucleotide, after 15–30 min washing, P-O stretching bands 1250–800 cm−1
# T1 construct: EGFP (N); octa-histidine tag (N); made in house; host or cells: Sf9 insect cells
# T1 sequence (F8W463 28-365 N78K/N187R/T189S limits assumed): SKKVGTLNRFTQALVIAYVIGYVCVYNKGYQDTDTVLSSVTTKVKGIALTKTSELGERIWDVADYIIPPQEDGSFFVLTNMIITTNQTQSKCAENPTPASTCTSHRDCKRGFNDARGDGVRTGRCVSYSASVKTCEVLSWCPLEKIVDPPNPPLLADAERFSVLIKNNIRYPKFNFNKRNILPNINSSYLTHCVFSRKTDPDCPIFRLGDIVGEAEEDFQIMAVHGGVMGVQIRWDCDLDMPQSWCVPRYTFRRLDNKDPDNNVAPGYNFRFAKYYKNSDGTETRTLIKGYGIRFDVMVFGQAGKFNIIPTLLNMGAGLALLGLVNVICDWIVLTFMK
# Description: (§1) To further investigate the nucleotide binding specificity of zfP2X4, we applied ligand-binding induced difference Attenuated total reflectance (ATR)-Fourier-transform infrared (FTIR) spectroscopy on the WT and conserved threonine mutants (T189S and T189V) of zfP2X4.
# (§2) Figure 5 ATR-FTIR spectroscopic analysis of zfP2X4 for the ATP and CTP bindings. (A) The reduction of the ligand binding induced difference spectra in the ΔP2X4-C ^zfWT, ^zfT189S and ^zfT189V mutants around the P-O stretching region (1250–800 cm^−1) after washing treatment for 15–30 min. (B) The residual nucleotides after the washing treatment estimated from the ATR-FTIR analysis in (A).
# (§3) The nucleotide binding affinity of zfP2X4 was analyzed by reduction of the band intensity after washing treatment (Fig. 5). The reduction of the P-O stretching bands between 1250–800 cm^−1 was monitored for ATP (Fig. 5A). […]
# (§4) The perfusion-induced difference FTIR spectroscopy was performed as similarly to the previous studies. […] ATR-FTIR spectra of the samples were recorded at 25 °C and 2 cm^−1 resolution using a VERTEX 70 spectrometer (Bruker Optics) equipped with a liquid-nitrogen-cooled MCT detector. […] The obtained difference spectra were normalized based on the absolute absorbance of the amide I band at 1653 cm^−1, which well correlates with the quantities of the proteins on the ATR crystals. […]
# zfP2X4 (ΔP2X4-C) WT = target: T2, zfP2X4 (ΔP2X4-C) WT (Danio rerio, UniProt F8W463, N187R/N78K); test: ATR-FTIR difference spectroscopy, residual nucleotide after washing, zfP2X4 WT; type: binding, zebrafish; details: 10 μM nucleotide, after 15–30 min washing, P-O stretching bands 1250–800 cm−1
# T2 construct: EGFP (N); octa-histidine tag (N); made in house; host or cells: Sf9 insect cells
# T2 sequence (F8W463 28-365 N78K/N187R limits assumed): T1 sequence (F8W463 28-365 N78K/N187R/T189S limits assumed) with S162T
# Description: as §1, §2, §3, §4
Compound,residual nucleotide binding after washing [1],residual nucleotide binding after washing (zfP2X4 (ΔP2X4-C) WT)
Nc1ccn([C@@H]2O[C@H](COP(=O)(O)OP(=O)(O)OP(=O)(O)O)[C@@H](O)[C@H]2O)c(=O)n1 [CTP],~ 30%,~ 50%
"Nc1ncnc2c1ncn2[C@@H]1O[C@H](COP(=O)(O)OP(=O)(O)OP(=O)(O)O)[C@@H](O)[C@H]1O [ATP, Adenosine 5-triphosphate]",~ 60%,~ 80%
